Measurements reported in patent publication US9744181B2, “Compositions and methods for combination antiviral therapy” (priority 2003, dated 2017).
Structures can show the parent of a compound that is named as a salt.

Assays:
[1] = combination tablet, six months at 40° C./75% RH; for loss in % label strength: with desiccant, significant defined as ≧5% degradation
HIV = conditions: patients, once-a-day dose of 200 mg
HIV-1 = conditions: in combination with recombinant soluble CD4 castanosperinine and recombinant interferon-α; cited from earlier work
[2] = test system: normal human bone marrow progenitor cells; conditions: AZT together with recombinant interferon-α; cited from earlier work
HIV replication = conditions: in combination with PMPA, d4T, ddC, nelfinavir, ritonavir, and saquinavir; cited from earlier work

Nc1nc(=O)n([C@@H]2CS[C@H](CO)O2)cc1F (single isomer, unassigned) [Emtricitabine]
loss in % label strength [1]: No significant loss
average reduction of viral load (HIV): 99%

Cc1cn([C@H]2C[C@H](N=[N+]=[N-])[C@@H](CO)O2)c(=O)[nH]c1=O [AZT, 3′-azido, 3′-deoxythymidine]
synergy of antiviral activity in vitro (HIV-1): synergistic antiviral activity
cytotoxic effect [2]: increased cytotoxic effect

CC(C)(C)C(=O)OCOP(=O)(COCCn1cnc2c(N)ncnc21)OCOC(=O)C(C)(C)C [Adefovir dipivoxil]
synergy of inhibition of HIV replication (HIV replication): minor to moderate synergistic inhibition

CC(C)OC(=O)OCOP(=O)(CO[C@H](C)Cn1cnc2c(N)ncnc21)OCOC(=O)OC(C)C [Tenofovir disoproxil fumarate, 9-[(R)-2-[[bis[[(isopropoxycarbonyl)oxy]methoxy]phosphinyl]methoxy]propyl]adenine fumarate (1:1)]
increase in the total degradation products ([1]; packaged and stored with 3 grams of desiccant): 1.5%
loss in % label strength [1]: No significant loss
